Legend:
SERT = target: T1, SERT (Homo sapiens, UniProt P31645); experiment: SERT inhibition assay (Neurotransmitter Transportation Fluorescence assay); assay type: cell-based; conditions: stable 5HTT cells, assay of Example B1
T1 construct: expressed in transfected cells
Description: SERT inhibition was measured using a Neruotransmitter Transportation Fluorescence assay. Briefly, stable SHTT cells were prepared in a 384 microwell plate. Compounds were prepared in assay buffer (20 mM HEPES in HBSS, 0.1% BSA). The compounds were added to the plated cells and incubated for 30 minutes at 37° C. 25 μL of dye solution (Molecular Devices Neurotransmitter Transporter Uptake Assay Kit) was added per well and incubated for 30 minutes at 37° C. The plates were then read on a plate reader.

PDE4A1A = target: T2, PDE4A1A (Homo sapiens, UniProt P27815); experiment: Recombinant PDE4 isoform inhibition assay (BPS Bioscience kit, fluorescence polarization); assay type: biochemical
T2 construct: purchased BPS Bioscience
Description: (§1) Recombinant PDE assay inhibition can be measured according to the BPS Bioscience PDE4 assay kit, as described below.
(§2) • 1) Dilute 20 μM FAM-Cyclic-3′, 5′-AMP stock 100-fold with PDE buffer to make a 200 nM
(§3) • 2) Add 25 μl of FAM-Cyclic-3′,5′-AMP (200 nM) to each well designated “Positive Control”, “Test Inhibitor”, and “Substrate Control”. • 3) Add 20 μl of PDE assay buffer to each well designated “Substrate Control” and 45 μl of PDE assay buffer to each well designated “Blank”. • 4) Add 5 μl of inhibitor solution to each well designated “Test Inhibitor”. For the wells labeled “Positive Control”, “Substrate Control” and “Blank”, add 5 μl of the same solution without inhibitor (inhibitor buffer). • 5) Thaw PDE on ice. Upon first thaw, briefly spin tube containing enzyme to recover the full contents of the tube. • 6) Dilute PDE4 in PDE buffer to 7.5 pg/μl (0.15 ng/reaction)*. Initiate reaction by adding 20 μl of PDE4 (7.5 pg/μl) to the wells designated “Positive Control” and “Test Inhibitor.” • 7) Incubate at room temperature for 1 hour.
(§4) • 1) Mix binding agent thoroughly and dilute binding agent 1:100 with binding agent diluent. • 2) Add 100 μl diluted binding agent to each microwell. Incubate at room temperature for 1 hour with slow shaking. • 3) Read the fluorescent polarization of the sample in a microtiter-plate reader equipped for the measurement of fluorescence polarization, capable of excitation at wavelengths ranging from 485±5 nm and detection of emitted light ranging from 528±10 nm. Blank value is subtracted from all other values.

PDE4B2 = target: T3, PDE4B2 (Homo sapiens, UniProt Q07343); experiment: as above; assay type: biochemical
T3 construct: purchased BPS Bioscience
Description: as §1, §2, §3, §4

PDE4C1 = target: T4, PDE4C1 (Homo sapiens, UniProt Q08493); experiment: as above; assay type: biochemical
T4 construct: purchased BPS Bioscience
Description: as §1, §2, §3, §4

PDE4D2 = target: T5, PDE4D2 (Homo sapiens, UniProt Q08499); experiment: as above; assay type: biochemical
T5 construct: purchased BPS Bioscience
Description: as §1, §2, §3, §4

[1] = cited from earlier work

T2 sequence (P27815 1-647 isoform P27815-4): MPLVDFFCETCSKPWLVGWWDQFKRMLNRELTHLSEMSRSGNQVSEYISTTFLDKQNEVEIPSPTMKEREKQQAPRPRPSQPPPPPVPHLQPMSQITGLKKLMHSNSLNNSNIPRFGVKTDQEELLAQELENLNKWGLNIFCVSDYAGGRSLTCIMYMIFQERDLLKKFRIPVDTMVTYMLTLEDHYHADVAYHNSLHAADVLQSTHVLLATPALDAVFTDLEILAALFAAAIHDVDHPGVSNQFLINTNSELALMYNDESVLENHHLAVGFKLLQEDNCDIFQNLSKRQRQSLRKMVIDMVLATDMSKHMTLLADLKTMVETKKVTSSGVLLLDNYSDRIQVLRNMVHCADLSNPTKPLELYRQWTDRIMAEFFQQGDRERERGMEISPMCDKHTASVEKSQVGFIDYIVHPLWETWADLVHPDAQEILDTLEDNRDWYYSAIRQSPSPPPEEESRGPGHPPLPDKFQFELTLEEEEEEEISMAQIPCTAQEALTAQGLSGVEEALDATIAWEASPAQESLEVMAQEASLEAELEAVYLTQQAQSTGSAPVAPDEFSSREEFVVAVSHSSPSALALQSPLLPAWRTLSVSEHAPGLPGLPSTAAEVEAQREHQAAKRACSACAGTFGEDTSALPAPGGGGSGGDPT
T4 sequence (Q08493 whole entry): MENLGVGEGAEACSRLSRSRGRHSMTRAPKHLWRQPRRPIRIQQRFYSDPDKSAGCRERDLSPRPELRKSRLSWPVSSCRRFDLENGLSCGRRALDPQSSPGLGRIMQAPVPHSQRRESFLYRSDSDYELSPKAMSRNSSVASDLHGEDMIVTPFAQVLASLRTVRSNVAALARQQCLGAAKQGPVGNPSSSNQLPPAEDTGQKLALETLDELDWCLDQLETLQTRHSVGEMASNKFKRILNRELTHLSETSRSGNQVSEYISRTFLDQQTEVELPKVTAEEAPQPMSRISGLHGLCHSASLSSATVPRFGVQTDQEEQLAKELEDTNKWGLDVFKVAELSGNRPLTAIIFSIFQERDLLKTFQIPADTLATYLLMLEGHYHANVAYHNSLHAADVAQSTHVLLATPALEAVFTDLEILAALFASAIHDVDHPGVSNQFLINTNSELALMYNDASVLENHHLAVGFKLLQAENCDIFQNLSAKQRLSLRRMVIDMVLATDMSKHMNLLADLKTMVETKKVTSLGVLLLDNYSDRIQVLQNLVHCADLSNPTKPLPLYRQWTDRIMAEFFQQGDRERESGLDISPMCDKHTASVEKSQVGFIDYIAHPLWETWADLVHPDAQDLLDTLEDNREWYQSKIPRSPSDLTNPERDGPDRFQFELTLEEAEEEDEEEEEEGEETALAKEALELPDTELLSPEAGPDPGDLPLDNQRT
T3 sequence (Q07343 1-564 isoform Q07343-2): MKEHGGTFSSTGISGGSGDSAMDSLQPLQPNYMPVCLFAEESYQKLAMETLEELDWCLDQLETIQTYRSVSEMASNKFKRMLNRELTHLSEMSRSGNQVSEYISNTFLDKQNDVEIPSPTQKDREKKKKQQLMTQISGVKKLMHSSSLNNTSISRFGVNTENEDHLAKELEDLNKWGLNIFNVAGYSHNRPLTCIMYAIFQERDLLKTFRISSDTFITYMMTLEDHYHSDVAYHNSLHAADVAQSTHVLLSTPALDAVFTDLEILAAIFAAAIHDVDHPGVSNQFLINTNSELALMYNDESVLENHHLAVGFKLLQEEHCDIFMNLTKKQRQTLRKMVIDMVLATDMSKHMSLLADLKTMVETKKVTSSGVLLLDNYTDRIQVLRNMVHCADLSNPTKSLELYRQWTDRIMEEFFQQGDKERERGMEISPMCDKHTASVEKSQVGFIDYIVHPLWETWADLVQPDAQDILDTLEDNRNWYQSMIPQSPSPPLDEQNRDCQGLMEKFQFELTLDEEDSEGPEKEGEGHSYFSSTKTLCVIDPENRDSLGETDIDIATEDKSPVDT
T5 sequence (Q08499 303-809 limits assumed): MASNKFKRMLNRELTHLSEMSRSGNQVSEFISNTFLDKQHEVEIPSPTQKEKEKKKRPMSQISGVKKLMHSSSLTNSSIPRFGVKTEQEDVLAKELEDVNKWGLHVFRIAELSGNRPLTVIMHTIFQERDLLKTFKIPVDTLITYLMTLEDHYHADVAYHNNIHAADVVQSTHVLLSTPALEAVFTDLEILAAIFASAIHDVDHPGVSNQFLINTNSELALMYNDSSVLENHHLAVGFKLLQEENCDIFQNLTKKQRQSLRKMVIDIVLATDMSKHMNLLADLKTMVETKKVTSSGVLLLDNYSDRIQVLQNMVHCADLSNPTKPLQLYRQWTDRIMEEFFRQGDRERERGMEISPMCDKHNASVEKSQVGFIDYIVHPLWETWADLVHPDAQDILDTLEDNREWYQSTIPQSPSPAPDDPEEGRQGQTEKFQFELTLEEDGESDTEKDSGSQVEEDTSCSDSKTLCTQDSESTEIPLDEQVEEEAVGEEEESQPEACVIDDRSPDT
T1 sequence (P31645 whole entry, species assumed): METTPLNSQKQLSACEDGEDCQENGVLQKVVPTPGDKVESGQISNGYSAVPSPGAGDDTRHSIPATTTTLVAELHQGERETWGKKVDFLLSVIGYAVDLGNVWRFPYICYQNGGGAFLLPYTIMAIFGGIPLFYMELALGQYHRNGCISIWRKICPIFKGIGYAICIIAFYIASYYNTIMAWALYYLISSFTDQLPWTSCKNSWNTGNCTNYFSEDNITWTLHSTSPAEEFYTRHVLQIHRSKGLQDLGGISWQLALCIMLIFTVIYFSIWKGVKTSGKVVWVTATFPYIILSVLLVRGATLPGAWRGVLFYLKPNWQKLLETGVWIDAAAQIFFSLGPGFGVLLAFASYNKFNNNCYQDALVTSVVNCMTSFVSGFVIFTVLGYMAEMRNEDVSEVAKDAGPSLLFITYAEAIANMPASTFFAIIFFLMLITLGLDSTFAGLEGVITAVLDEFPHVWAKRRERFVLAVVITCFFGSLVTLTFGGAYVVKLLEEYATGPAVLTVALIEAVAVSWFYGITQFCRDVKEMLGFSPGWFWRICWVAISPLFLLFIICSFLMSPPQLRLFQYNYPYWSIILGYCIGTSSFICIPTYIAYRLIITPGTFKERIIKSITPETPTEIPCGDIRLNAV

Row | SMILES | IC50 (SERT) [nM] | inhibition at 10 µM (PDE4A1A) [%] | inhibition at 10 µM (PDE4B2) [%] | inhibition at 10 µM (PDE4C1) [%] | inhibition at 10 µM (PDE4D2) [%] | half-life in plasma [1]
1 | COc1ccc([C@]23CCN(C)[C@H]2CC(=O)C[C@H]3C)cc1OC (single isomer, unassigned) [Compound 102] | < 250 | < 20 | < 20 | < 20 | < 20 | –
2 | COc1ccc([C@@]23CCN(C)[C@@H]2CC(=O)C[C@@H]3C)cc1OC (single isomer, unassigned) [Compound 103] | < 250 | < 20 | < 20 | < 20 | < 20 | –
3 | COc1ccc([C@@]23CCC(=O)C[C@@H]2N(C)CC3)cc1OC [(−) mesembrine] | – | – | – | – | – | less than 2 hours

From US20240400508A1, “ALKYL-SUBSTITUTED DERIVATIVES OF […] ME[…] […] USES THEREOF” (Sensorium Therapeutics, Inc., priority 2022, published 2024)
